Legend:
[1] = system: Tsc2+/- mice; experiment: Quantitative confocal immunohistochemistry of synaptophysin (SY38) in hippocampus; type: in vivo, mouse; details: i.p. loading 92 μmol/kg then 4.6 μmol/kg twice daily, two and a half days
Excerpt: To determine the effects of […] antagonists on the brain histology of Tsc2^+/- mice, quantitative confocal immunohistochemistry was used to analyze coronal brain slices from 3-month-old wild-type (WT) and Tsc2^+/- mice that had been treated for two and a half days with vehicle, memantine or NitroSynapsin. Tsc2+/- mice on the C57Bl/6J background received via the intraperitoneal route either vehicle or a loading dose of 92 μmol/kg of memantine or NitroSynapsin, followed by 4.6 μmol/kg of drug twice daily for two-and-a-half-days, with the last dose 3 hours prior to the behavioral training session (for a total of five drug injections). This dosing regimen yields an effective concentration of drug at NMDARs in the brain of 1-10 μM.

[2] = system: p38 MAPK/MAPKAPK2/TSC2/mTORC1/S6K1 cascade; experiment: Western blots of eNMDAR-triggered signaling; type: cell-based; details: 10 μM
Excerpt: This experiment was replicated 4 times with similar results and quantified in FIG. 20C.

[3] = system: Tsc2+/- mice; experiment: Fear conditioning test; type: in vivo, mouse; details: two-and-a-half-day treatment, last dose 3 hours before training
Excerpt: To determine the effects of eNMDAR antagonists on the brain histology of Tsc2^+/− mice, quantitative confocal immunohistochemistry was used to analyze coronal brain slices from 3-month-old wild-type (WT) and Tsc2^+/− mice that had been treated for two and a half days with vehicle, memantine or NitroSynapsin. Tsc2+/− mice on the C57Bl/6J background received via the intraperitoneal route either vehicle or a loading dose of 92 μmol/kg of memantine or NitroSynapsin, followed by 4.6 μmol/kg of drug twice daily for two-and-a-half-days, with the last dose 3 hours prior to the behavioral training session (for a total of five drug injections). This dosing regimen yields an effective concentration of drug at NMDARs in the brain of 1-10 μM.
Fear conditioning tests were performed on three-month-old Tsc2^+/+ and Tsc2^+/− mice to explore the effects of eNMDAR antagonists on anxiety, and learning and memory deficits in Tsc2^+/− mice. Vehicle, memantine or NitroSynapsin were administered for two and a half days, with the last dose of drug occurring 3-hours prior to the first training session. […] Freezing time of three-month-old WT and Tsc2^+/− transgenic mice treated with vehicle, memantine or NitroSynapsin in fear-conditioning trials. […] Values are mean+s.e.m. (n=7-12 mice per group). […]

[4] = system: Mef2c-het mice; experiment: Immunohistochemistry and stereological cell counting in hippocampus after chronic treatment; type: in vivo, mouse; details: optical dissector
Excerpt: Mef2c heterozygous knockout (Mef2c-het) mice were created by crossing mice carrying the conventional exon 2-deleted allele of Mef2c (Mef2c^Δ2) with their WT littermates. All procedures for maintaining and using these mice were approved by the Institutional Animal Care and Use Committee (IACUC) at the Sanford Burnham Prebys Medical Discovery Institute. In this study, only male mice were used for the behavioral assays to insure uniformity (either with or without drug treatment). Chronic treatment with memantine, NitroSynapsin (both at 4.6 μmol/kg body weight) or vehicle (PBS) was administered via i.p. injection, twice a day for at least 3 months, starting at ˜2.5 weeks of age. This age was chosen because mice are still juveniles and thus treatment could begin in human at an equivalent stage.
Mice were perfused with PBS buffer and then 2% paraformaldehyde in PBS (PFA).
After perfusion, brains were removed and placed into 2% PFA overnight for post-fixation and then sunk in 30% sucrose in PBS prior to freezing. Cryostat sections were cut at a thickness of 15 μm. Sections were soaked in Antigen Unmasking Solution (Vector) and microwaved for 30 s, followed by permeabilization with 0.25% Triton X-100 in PBS for 15 min. Primary antibodies were incubated for 16 h at 4° C. and fluorescence-conjugated secondary antibodies for 2 h at 25° C. Numerous unstained cells in each field served as an internal control for staining specificity. Primary antibodies included: NeuN (mouse, EMD Millipore), activated caspase-3 (rabbit, Cell Signaling), VGLUT1 (guinea pig, SYSY), VGLUT2 (rabbit, SYSY), VGAT (mouse, SYSY), synaptophysin (mouse, Sigma), GFAP (mouse, Sigma), PCNA (mouse, Santa Cruz), DCX (goat, Santa Cruz). TUNEL assay was performed to assess apoptosis using the Roche In Situ Cell Death Detection Kit per vender's instruction. The number of cells positive or percent area occupied by NeuN, activated caspase-3, TUNEL, GFAP, PCNA, or DCX was counted in specific brain regions using an optical dissector, or estimated by quantitative confocal immunohistochemistry or optical density, as described previously.

[5] = Fung and Hardan 2015; cited from earlier work

## CC12CC3CC(C)(C1)CC(N)(C3)C2 [memantine, reference compound]
[1]
  synaptophysin (SY38) staining in hippocampus (% area): not statistically significant
[2]
  phosphorylation/activation of the p38 MAPK/MAPKAPK2/TSC2/mTORC1/S6K1 cascade on eNMDAR stimulation: reduced this signaling
[3]
  context discrimination (freezing time, training vs novel context): failed to mitigate this deficit
[4]
  total number of NeuN+ cells in hippocampus: but not memantine (M), was significantly greater than in vehicle (V)-treated mice
[5]
  outcome in human clinical trials for ASD/IDD: failed in human clinical trials

— patent US11529319B2, “Methods and compositions for treating neurological conditions” (priority 2017, dated 2022)
